In paper PMC11790763, “A Peptide Motif Covering Splice Site B in Neuroligin-1 Binds to Aβ and Acts as a Neprilysin Inhibitor” (Molecular Neurobiology, 2024):
Bridges are numbered along the chain shown (N, C = ends). Roman numbers before positions name the chains, in order. Where no end group is shown, it is not given here.

B1: NL1: recombinant rat neuroligin-1, soluble ectodomain (R&D systems) (protein, UniProt Q62765 46-697, looked up)
extracellular domain: QKLDDVDPLVTTNFGKIRGIKKELNNEILGPVIQFLGVPYAAPPTGEHRFQPPEPPSPWSDIRNATQFAPVCPQNIIDGRLPEVMLPVWFTNNLDVVSSYVQDQSEDCLYLNIYVPTEDVKRISKECARKPGKKICRKGDIRDSGGPKPVMVYIHGGSYMEGTGNLYDGSVLASYGNVIVITVNYRLGVLGFLSTGDQAAKGNYGLLDLIQALRWTSENIGFFGGDPLRITVFGSGAGGSCVNLLTLSHYSEGNRWSNSTKGLFQRAIAQSGTALSSWAVSFQPAKYARILATKVGCNVSDTVELVECLQKKPYKELVDQDVQPARYHIAFGPVIDGDVIPDDPQILMEQGEFLNYDIMLGVNQGEGLKFVENIVDSDDGVSASDFDFAVSNFVDNLYGYPEGKDVLRETIKFMYTDWADRHNPETRRKTLLALFTDHQWVAPAVATADLHSNFGSPTYFYAFYHHCQTDQVPAWADAAHGDEVPYVLGIPMIGPTELFPCNFSKNDVMLSAVVMTYWTNFAKTGDPNQPVPQDTKFIHTKPNRFEEVAWTRYSQKDQLYLHIGLKPRVKEHYRANKVNLWLELVPHLHNLNDISQYTSTTTKVPSTDITLRPTRKNSTPVTSAFPTAKQDDPKQQPSPFSVDQRDYSTELS
modifications: extracellular domain

Columns and labels:
5XFAD and WT mice = experiment: Aβ plaque load, Thioflavin-S staining of brain sections; assay type: in vivo, mouse
Experimental: (§1) At the age of 2 months, 5XFAD and WT mice were injected subcutaneously (s.c.) with either neurolide (10 mg/kg) or saline in a volume of 0.1 ml/10 g of body weight three times a week for 10 weeks.
(§2) After 10 weeks of treatment, mice were transcardially perfused with 0.1 M PBS, pH 7.4 under deep pentobarbital anesthesia (intraperitoneal, 200 mg/kg). The left brain hemispheres were postfixed in 4% paraformaldehyde in PBS. The brain hemispheres were further dehydrated in ethanol, cleared, embedded in paraffin blocks and serially sectioned into 7-μm coronal sections through the entire brain hemisphere. Parallel series of sections were collected, consisting of 12 equally spaced Sects. (400 μm apart). One of the series was stained with 1% Thioflavin-S for histological evaluation of Aβ plaque formation. Another series was used for immunohistochemical staining of GFAP + astrocytes as described previously. Extracellular Aβ plaque load was assessed in cortex, hippocampus, striatum, thalamus, and hypothalamus. GFAP-positive astrocytes were assessed in motor cortex. Serial super images of whole-brain sections were acquired using an Olympus BX-51 microscope equipped with the Visiopharm Integrator System software (Visiopharm) and analyzed using the ImageJ software package. The pictures were converted to 8-bit images, and the area of interest was marked. The intensity threshold was fixed to fit Thioflavin-S or GFAP signal. The area, covered by Thioflavin-S or GFAP staining, was measured in selected regions.

[1] = Integrity after prolonged incubation under aggregation assay conditions (immunoblot); assay type: physicochemical; conditions: aggregation buffer 50 mM Tris pH 7.4, 37 °C, 8 days; His-tagged NL1 200 nM, biotinylated neurolide 6.7 μM; SDS-PAGE and Western blot versus fresh samples
Experimental: After 8-day incubation, they were subjected to conventional SDS polyacrylamide gel electrophoresis on a pre-casted gel (Any kD Mini-PROTEAN TGX gel, Bio-Rad) and transferred to a PVDF membranes (Millipore) together with freshly prepared samples of sNL1 and b-neurolide as corresponding positive controls. Subsequently, membranes were blocked in 5% (wt/vol) non-fat dry milk in PBST (PBS containing 0.05% [vol/vol] Tween-20). To detect sNL1, blots were probed overnight with a 6x-His tag monoclonal antibody (1:2000, Thermo Fisher Scientific) at 4 °C, followed by incubation for 1 h at room temperature with an anti-mouse horseradish peroxidase (HRP)-conjugated secondary antibody (1:10,000, Thermo Fisher Scientific). B-neurolide was detected by incubation for 1 h at room temperature with a streptavidin-HRP complex (1:5000, Dako). Chemiluminescent signal on the blot was developed by employing the SuperSignal ELISA Femto Substrate kit (Thermo Fisher Scientific) according to the manufacturer’s instructions, and images were acquired using an AlphaImager system (Alpha Innotech).
Supplementary file 12035_2024_4475_Fig8_ESM.png: Supplementary Fig. 3. […] NL1 (200 nM; R&D Systems) and biotinylated neurolide (6.7 μM; Schafer-N) were dissolved in the aggregation buffer, incubated at 37°C for 8 days, followed by conventional immunoblotting. […]

rats = conditions: cited from earlier work
5XFAD mice = experiment: GFAP immunoreactivity (astrogliosis) in cortex; assay type: in vivo, mouse; conditions: 10 mg/kg s.c. three times a week for 10 weeks, neurolide n = 11 versus vehicle n = 13, p < 0.01
Experimental: as §1
as §2, with “The pictures were converted to 8-bit images, and the area of interest was marked. The intensity threshold was fixed to fit Thioflavin-S or GFAP signal.” left out

Aβ1-42 = conditions: NL1 at 1 nM; cited from earlier work
Excerpt: This higher accumulation of Aβ plaques promoted by the neurolide treatment prompted us to look for an explanation for this phenome ...

[2] = 5XFAD mice, 10 mg/kg s.c. three times a week for 10 weeks, neurolide n = 11 versus saline n = 13

Row | Molecule | average size of thioflavin-S-positive plaques in the cortex (5XFAD and WT mice; [2]) | fractional area of thioflavin-S-positive plaques in the cortex (5XFAD and WT mice; [2]) | plaque area or plaque size in other brain regions (5XFAD and WT mice; 5XFAD mice, hippocampus, striatum, thalamus, hypothalamus, versus saline) | plaques in WT brains (5XFAD and WT mice; WT mice, 10 mg/kg s.c. three times a week for 10 weeks) | integrity after prolonged incubation [1] | spatial memory deficits induced by NMDAR-antagonist MK801 (rats) | spatial learning, social behavior, and locomotor activity (rats; healthy rats) | area of GFAP-immunoreactivity (gliosis) in the cortex (5XFAD mice) | effect on Aβ aggregation at low concentration (Aβ1-42)
1 | I: SEGNRWSNSTKGLFQRAKK-NH2 / II: SEGNRWSNSTKGLFQRAK / III: SEGNRWSNSTKGLFQRA / IV: SEGNRWSNSTKGLFQRA (amide I:18-IV:C, I:19-II:C, II:18-III:C; C-terminus assumed) [neurolide] | significant increase | significant increase | no significant difference | no plaques | remained intact | counteracted spatial memory deficits | had no effect | significant increase | 
2 | B1 |  |  |  |  | remained intact |  |  |  | accelerated the aggregation
